Test results as given in patent US4294833A, “Substituted 4-hydroxy-isophthalic acid picolylamides having a pharmaceutical activity in thromboembolic disorders” (Societa Italo-Britannica, priority 1977, dated 1981).

What was measured:
[1] = tested on: platelet aggregation induced by thrombin; experiment: Platelet aggregation inhibitory activity in vivo (Born aggregometer), thrombin-induced; set-up: species or system New Zealand rabbits; conditions: Oryctolagus cuniculus, Platelet, ip, dose for 50% inhibition of thrombin-induced aggregation curve; rabbits, intraperitoneal, blood 2, 4 and 6 hours after injection; read-out: platelet antiaggregant activity (AAP), DI50, Thrombin
Experimental: (§1) Determination of the platelet aggregation inhibitory activity in vivo
(§2) The activity of the above described compounds as platelet antiaggregant was tested in vivo on rabbits, by the Born aggregometer. The inhibition of the aggregation curve induced by ADP and thrombin was assessed with different drug concentrations according to the platelet reactivity. New Zealand rabbits which had been held fasting for 12 hours with water ad libitum, were anaesthetized with Nembutal in a dose of 35 mg/kg intramuscolarly. The blood was withdrawn from the carotidal arthery, before (control) and 2, 4, and 6 hours after the intraperitoneal injection of the compounds under examination (at the dose indicated below). The blood samples were taken up in a 3.8% aqueous solution of sodium citrate in a ratio 10:1 and thereupon centrifuged at 1500 r.p.m. for 10 minutes, for obtaining a PRP (platelet rich plasma). A portion of such a plasma was thereupon centrifuged at 8000 r.p.m. for 10 minutes, for obtaining a PPP (platelet lean plasma) which was used for zeroing the measuring apparatus.
(§3) From the results of said experiments, there was determined the dose of each product in mg/kg body weight able to induce a 50% inhibition of the aggregation curve (DI50) after treatment, referred to the curve obtained by the same control plasma before treatment.
(§4) In tables I and II are further indicated for each compound the method of preparation; the melting point PF in °C; the platelet antiaggregant activity (AAP) expressed in terms of DI50 in mg/kg, referred to ADP and thrombin respectively; the antithrombin activity (AT) in %; the anticoagulant activity (AC) in %; the fibrinolytic activity (FL) in %; the acute toxicity (LD50) in mice, intraperitoneally, in mg/kg, as previously defined.

[2] = tested on: thrombin-induced coagulation of platelet rich plasma; experiment: Antithrombin activity on PRP, Hartert's thromboelastograph; format: in vivo, New Zealand rabbits; conditions: Oryctolagus cuniculus, Platelet, ip, percent decrease of index ma/[r+k] vs before treatment; 20 mg/kg intraperitoneal, rabbits
Experimental: Determination of the antithrombin activity
The antithrombin activity on the PRP (platelet rich plasma) obtained following the above described method was assessed by Hartert's thromboelastograph (Hellige model). The coagulation was induced by adding to 0.25 ml of plasma 0.06 ml of a thrombin solution (Roche Topostasin® per os) at 60 units*, pH 7.4**. The antithrombin activity was assessed in terms of a percent decrease of the index (ma/[r+k]) which was calculated from the thromboelastograph diagram, wherein r is the reaction time, k is the speed of the coagulum formation and ma is the maximum spread of the tong, after an intraperitoneal treatment with a dose of 20 mg/kg of each compound under examination, referred to the same index obtained before the treatment (control).
as §4

blood coagulum = experiment: Fibrinolytic activity, Fearnley method (lysis of blood coagulum in toto); format: in vivo; conditions: Oryctolagus cuniculus, ip, 0.5 h, percent decrease of coagulum weight after 30 minutes at 37° C.; 25 mg/kg intraperitoneal, rabbits; read-out: fibrinolytic activity (FL)
Experimental: Determination of the fibrinolytic activity
The determination of the fibrinolytic activity was made following the Fearnley method for the lysis of the blood coagulum in toto.
0.2 ml of blood were withdrawn from the marginal vein of the ear of rabbits treated in the same way as the previously described tests, before and after an intraperitoneal injection of the compounds under test at a dose level of 25 mg/kg for each compound.
The blood samples were placed in test tubes containing 1.7 ml of phosphate buffer at pH 7.4 and 0.1 ml of thrombin (Roche Topostasin ® per os) at 50 units NIH/ml, and maintained in an ice bath. The test tubes were maintained at said temperature for 30 minutes and thereupon were transferred to a temperature controlled water bath at 37° C.
The fibrinolytic activity was determined as a percent decrease of the coagulum weight, measured after incubation for 30 minutes at 37° C.
as §4

[3] = tested on: platelet aggregation induced by ADP; experiment: Platelet aggregation inhibitory activity in vivo (Born aggregometer), ADP-induced; set-up: species or system New Zealand rabbits; conditions: Oryctolagus cuniculus, Platelet, ip, dose for 50% inhibition of ADP-induced aggregation curve; rabbits, intraperitoneal, blood 2, 4 and 6 hours after injection; read-out: platelet antiaggregant activity (AAP), DI50, ADP
Experimental: as §1, §2, §3, §4

[4] = tested on: CaCl2-induced plasma coagulation; experiment: Anticoagulant activity on PRP, Hartert's thromboelastograph; format: in vivo, New Zealand rabbits; conditions: Oryctolagus cuniculus, ip, percent increase of total time for coagulum formation (r+k) vs before treatment; 25 mg/kg intraperitoneal, rabbits; read-out: anticoagulant activity (AC)
Experimental: Determination of the anticoagulant activity
The anticoagulant activity was also assessed on PRP of animals treated as described in the preceding methods, by using again Hartert's thromboelastograph method.
The plasma coagulation was induced by adding to 0.25 ml PRP a 1.29% solution of CaCl2.
The anticoagulant effect was determined as a percent increase of the total time for the coagulum formation (the index r+k can be obtained from the thromboelastograph diagram) in a plasma after treatment, referred to the same index obtained before the treatment (control). Again the dose level was 25 mg/kg for each compound under examination, intraperitoneally.
as §4

[5] = Acute toxicity, intraperitoneal; conditions: mouse, in vivo, ip, male Swiss mice, intraperitoneal, 7 days observation; preliminary, by graphic interpolation; read-out: acute toxicity (LD50 / DL50)
Experimental: The acute toxicity limit was determined intraperitoneally on male Swiss mice, weighing 20±2 g, held fasting for 18 hours with water ad libitum.
The animals were maintained under observation for 7 days of treatment, by examining the general symptomatology and noting the death sequency. The preliminary DL50 in mg/kg body weight was calculated by graphic interpolation of the results as obtained.
as §4

Structure (SMILES) | ED50 [1] [mg/kg] | inhibition in vivo at 20 mg/kg [2] [%] | fibrinolytic activity (percent decrease of coagulum weight) at 25 mg/kg (blood coagulum) [%] | ED50 [3] [mg/kg] | change in vivo at 25 mg/kg [4] [%] | LD50 at 168 h [5] [mg/kg]
CCOc1ccc(C(=O)N(CCC(C)C)Cc2cccnc2)cc1C(=O)N(CCC(C)C)Cc1cccnc1 [Example 45] | 22.3 | 35.8 | 29.9 | 30.6 | 16.3 | 460
O=C(NCc1ccncc1)c1ccc(O)c(C(=O)NCc2ccncc2)c1 [Example 57] | 19.2 | 38.4 | 32.1 | 26 | 19 | 661
CC=COc1c(Cl)cc(C(=O)N(CCCCC)Cc2cccnc2)cc1C(=O)N(CCCCC)Cc1cccnc1 [Example 51] | 32.4 | 28.2 | 26.1 | 51.6 | 15.7 | 205
CC=CCOc1ccc(C(=O)NCc2cccnc2)cc1C(=O)NCc1cccnc1 [Example 11] | 18.6 | 52.3 | 44.2 | 25.3 | 13.5 | 178
CC(C)(C)COc1ccc(C(=O)NCc2cccnc2)cc1C(=O)NCc1cccnc1 [Example 34] | 27.3 | 29.7 | 22.7 | 35.6 | 13.6 | 351
O=C(NCc1cccnc1)c1cc(Cl)c(O)c(C(=O)NCc2cccnc2)c1 [Example 32] | 33.6 | 22.2 | 17.3 | 50.2 | 11.8 | 425
C=CCOc1c(Cl)cc(C(=O)NCc2ccncc2)cc1C(=O)NCc1ccncc1 [Example 67] | 34.2 | 39.8 | 27.1 | 55.6 | 14.6 | 187
C=C(C)Oc1c(Cl)cc(C(=O)N(C)Cc2cccnc2)cc1C(=O)N(C)Cc1cccnc1 [Example 52] | 32.1 | 29.1 | 26.7 | 49.2 | 14.2 | 194
CC=COc1c(Cl)cc(C(=O)N(Cc2cccnc2)C(CC)CC)cc1C(=O)N(Cc1cccnc1)C(CC)CC [Example 50] | 33.8 | 27.6 | 24.6 | 52.2 | 13.8 | 198
CC(C)(C)COc1c(C(=O)NCc2cccnc2)cc(C(=O)NCc2cccnc2)cc1[N+](=O)[O-] [Example 35] | 29.7 | 25.4 | 20.2 | 37.1 | 12.6 | 194
CCOc1ccc(C(=O)N(Cc2cccnc2)CC(C)C)cc1C(=O)N(Cc1cccnc1)CC(C)C [Example 44] | 20.9 | 38.6 | 32.5 | 28.7 | 19.3 | 465
COc1cc(C(=O)NCc2cccnc2)cc(C(=O)NCc2cccnc2)c1OC1CCC1 [Example 19] | 25.2 | 32.8 | 28.1 | 34.7 | 15.6 | 254
COc1cc(C(=O)NCc2cccnc2)cc(C(=O)NCc2cccnc2)c1OCC(C)(C)C [Example 37] | 32 | 25.5 | 21.9 | 44.6 | 14.2 | 378
C=CCCCOc1ccc(C(=O)NCc2cccnc2)cc1C(=O)NCc1cccnc1 [Example 9] | 23.2 | 49.9 | 40.3 | 36.2 | 14.5 | 375
C=CCOc1ccc(C(=O)NCc2cccnc2)cc1C(=O)NCc1cccnc1 [Example 7] | 19.2 | 51.5 | 44.7 | 36.3 | 14.5 | 374
CCCN(Cc1cccnc1)C(=O)c1ccc(OC)c(C(=O)N(CCC)Cc2cccnc2)c1 [Example 41] | 46.5 | 26.3 | 22.3 | 65.1 | 15.8 | 620
CC(C)COc1ccc(C(=O)NCc2cccnc2)cc1C(=O)NCc1cccnc1 [Example 15] | 33 | 25.5 | 19.8 | 52.6 | 17.6 | 471
C=CCCCCOc1ccc(C(=O)NCc2cccnc2)cc1C(=O)NCc1cccnc1 [Example 10] | 21.1 | 52.6 | 43.9 | 29.4 | 12.6 | 194
CC=CCOc1ccc(C(=O)N(C)Cc2cccnc2)cc1C(=O)N(C)Cc1cccnc1 [Example 53] | 19.6 | 47.9 | 40.5 | 27.5 | 15.1 | 215
CC(C)CCOc1ccc(C(=O)NCc2ccncc2)cc1C(=O)NCc1ccncc1 [Example 63] | 28.4 | 29.2 | 23.2 | 42.9 | 22.6 | 185
COc1ccc(C(=O)N(Cc2cccnc2)C(C)C)cc1C(=O)N(Cc1cccnc1)C(C)C [Example 43] | 20.6 | 39.4 | 33.6 | 27.3 | 20.7 | 478
